This note sets out measurements from patent publication US20200129499A1, “COMBINATION OF TASQUINIMOD OR A PHARMACEUTICALLY ACCEPTABLE SALT THEREOF AND A PD-1 AND/OR PD-L1 INHIBITOR, FOR USE AS A MEDICAMENT” (ACTIVE BIOTECH AB, priority 2015, published 2020).

What all share (assay type): in vivo, mouse
Test [1] has as its system MBT-2 tumors. Nature of the test: Subcutaneous MBT-2 tumor model, early or established tumors (Examples 3 and 4). Here is the method:
FIG. 4: Treatment with tasquinimod had no effect on established MBT-2 tumor growth and induced an alteration in the profile of PD-1/PD-L1 axis. (A) Growth curves and (B) tumor weight of MBT-2 tumors treated with tasquinimod at 30 mg/kg (oral gavage, twice daily) after randomization at day 11 post tumor-cell inoculation (n=12). Mice were sacrificed. Tumors were harvested, digested and then subjected to surface staining. (C) PD-L1 expression on myeloid cells treated with vehicle (control) or tasquinimod 30 mg/kg at day 15. (D) Quantitative data of the Median Fluorescence Intensity of PD-L1 gated on infiltrating myeloid cells CD1 1b+ (*, P<0.05; Mann-Whitney test, n=5 mice per group).
FIG. 5: 106 MBT-2 cells were injected subcutaneously in C3H/HeNRj mice. Animals were treated with Anti-PD-L1 or its isotype (IgG2B) at the dose of 200 μg by intraperitoneal injection. Treatment started at (A) day 1 (Student test; left panel: *, P=0.0223), or (B) day 11 post tumor cell inoculation. […]
MBT-2 cells (1×106) were injected subcutaneously into the flanks of mice and resulting tumors were allowed to grow for 21 days. Tumors were measured by caliper and tumor volume (mm3) was calculated using the formula=(Width) 2×Length 12. […]

For test [2], the system named is MBT-2 tumors. Nature of the test: Gene expression profiling (qRT-PCR) in MBT-2 tumors after 10 days of tasquinimod (Example 2). The following applies: 30 mg/kg p.o. twice daily from day 10 for 10 days; FIG. 2. Here is the method: FIG. 2: Gene expression profiling in MBT-2 tumors derived from mice treated with 30 mg/kg p.o. of tasquinimod twice daily from day 10 after tumor inoculation. Tasquinimod treatment was carried out for 10 days. Data are represented as fold change of treated tumors compared to control tumors.
Mice were treated as described in Example 1. After 10 days of treatment with tasquinimod, i.e. 20 days after tumor inoculation, RNA from tumors was isolated from 100 μηη of OCT-embedded tumor cryosections using Trizol Reagent (Life Technologies). RNA concentration and purity was determined through measurement of A260/A280 ratios with a NanoDrop ND-1000 spectrophotometer. RNA integrity was checked using the Agilent 2100 Bioanalyzer. cDNA was prepared using High-Capacity cDNA Reverse Transcription Kit (LifeTechnologies) following the manufacturer's instructions. Q-PCR was performed with a […] PCR-protocol (95° C. for 10 min, followed by 40 cycles of 95° C. for 15 sec and 60° C. for 1 min) using Taqman gene expression (LifeTechnologies). Expression levels were calculated as normalized ACt expression values between target gene and the two “housekeeping” and Hmbs and Cyclophilin A for Taqman technology. Data were presented as fold induction (2AACt) of treated tumors compared to control tumors. The probes used in the experiments are the following: […]

A further test relates to PD-L1 in CD1 1b+ cells. Nature of the test: FACS analysis of PD-L1 on tumor CD11b+ myeloid cells. As for the experimental part: FIG. 3: Median Fluorescence Intensity (MFI) of PD-L1 in CD1 1b+ cells derived from mice bearing tumors treated with tasquinimod. The mice were treated with 30 mg/kg p.o. of tasquinimod twice daily from day 10 after tumor inoculation. Tasquinimod treatment was carried out for 7 days. This analysis was done by cytometry.
FIG. 4: Treatment with tasquinimod had no effect on established MBT-2 tumor growth and induced an alteration in the profile of PD-1/PD-L1 axis. (A) Growth curves and (B) tumor weight of MBT-2 tumors treated with tasquinimod at 30 mg/kg (oral gavage, twice daily) after randomization at day 11 post tumor-cell inoculation (n=12). Mice were sacrificed. Tumors were harvested, digested and then subjected to surface staining. […] (D) Quantitative data of the Median Fluorescence Intensity of PD-L1 gated on infiltrating myeloid cells CD1 1b+ (*, P<0.05; Mann-Whitney test, n=5 mice per group).
Mice were treated as described in Example 1. […] Cells were analyzed by Fortessa X-20 (BD Biosciences).
Single cell suspensions were prepared from tumors by incubating the tumors cross-cut into small pieces in 8 mg/ml Collagenase IV (Life Technologies) and 0.1% DNase (Sigma-Aldrich) for 45 min at 37° C. […] Data were analyzed using FlowJo software (Tree Star Inc.). […] This procedure yielded predominantly CD1 1b+ cells with purity greater than 80% as assessed by FACS analysis.
On the technique in general: In flow cytometry, cells or beads pass a laser one at a time.

Structures are written as SMILES. “Also recorded” adds a separate entry of the source.

On to `COc1cccc2c1c(O)c(C(=O)N(C)c1ccc(C(F)(F)F)cc1)c(=O)n2C` [tasquinimod, 4-hydroxy-5-methoxy-N,1-dimethyl-2-oxo-N-[4-(trifluoromethyl)phenyl]-1,2-dihydroquinoline-3-carboxamide], for which, in the test with MBT-2 tumors [1] (established tumors, treatment from day 8, FIG. 6B), the “tumor growth (tumor volume, mean±SEM)” value is listed as 343±67 mm3. The “tumor growth of established MBT-2 tumors” value in the test on MBT-2 tumors [1] (treatment started at tumor volume 50-100 mm3, tasquinimod 30 mg/kg twice daily, Anti-PD-L1 200 μg i.p.) is given as “no effect; also recorded: lost its ability to inhibit tumor growth”. For the same compound, in the test with MBT-2 tumors [2], the “expression of 11-12b” value was “increase”; the “expression of CD206, a M2 macrophage marker” value is reported as “decrease”; the “expression of nos2” value is given as “increase”; the “mRNA expression of Cd274 in the tumor microenvironment” value is “increase”. For the same compound, the “median fluorescence intensity of PD-L1 expressed on myeloid cells” value in the test with PD-L1 in CD1 1b+ cells (30 mg/kg p.o. twice daily from day 10 for 7 days, FIG. 3) is given as “increase”. In addition, the “expression of PD-L1 gated on CD1 1b+ cells” value in the test with PD-L1 in CD1 1b+ cells (established MBT-2 tumors, tasquinimod 30 mg/kg, day 15, FIGS. 4C and D) is reported as “increase”.
